Measurements reported in patent US11519017B2, “Kit for diagnosing infection with Methicillin-resistant Staphylococcus aureus (MRSA) by detecting magnesium ions” (Bioacts Corporation, priority 2017, dated 2022).
Entries after “also recorded” stand apart in the source; their conditions may differ.

What was measured:
Assay type in all cases: physicochemical
[1] = Evaluation of molar absorption coefficient (UV-vis); conditions: for Molar absorption coefficient: deionized water, UV-vis spectrometer; for absorption coefficient relative to HNB: times higher than that of HNB
Method: HNB and 9 types of candidate substances were dissolved in deionized water to prepare 100 μg/ml of a stock and then diluted with deionized water to prepare samples of 50, 25 and 12.5 μg/ml. Next, an absorption spectrum was obtained using an analyzer UV-vis spectrometer (Agilent 8453), and then absorption coefficient values at a concentration of […] were measured and shown in Table 1 below.

[2] = Evaluation of magnesium ion detection characteristics and pH stability (color development, 96 well plate); conditions: sodium phosphate buffer pH 4, 7, 9, 11; specimen 120 μM
Method: 200 mM of a magnesium chloride solution was prepared by dissolving 0.9521 g of magnesium chloride in 50 ml of deionized water.
59.99 mg of sodium phosphate monobasic and 70.98 mg of sodium phosphate dibasic were dissolved in 50 ml of distilled water to prepare 10 mM of a sodium phosphate buffer solution, and then 28.85 ml of a sodium phosphate monobasic solution and 21.15 ml of a sodium phosphate dibasic solution were mixed to prepare a sodium phosphate buffer solution at pH 7. In a similar manner, the two solutions were mixed to prepare sodium phosphate buffer solutions having acidity of pH 4, pH 7, pH 9, and pH 11, respectively.
For determination of color development, the HNB and the candidate substance were prepared at concentrations of 240 μM and used for the test.
Hydroxynaphthalene blue (HNB) and 9 types of water-soluble candidate substances selected by the solubility test were diluted with distilled water to prepare specimens at concentrations of 240 μM, respectively.
It was confirmed whether the candidate substances according to the present invention reacted with magnesium ions to be color-developed (discolored). In addition, pH stability was confirmed according to whether the candidate substances were specifically color-developed by reacting only with magnesium ions regardless of a pH change.
The color development of the control (HNB) and […] of candidate substances was confirmed under conditions of blank, a MgCl2 solution, pH 4, pH 7, pH 9, and pH 11 using a 96 well plate (12×6 holes). Specifically, 100 μl of deionized water (blank) was added in a first row of the plate, 100 μl of the MgCl2 solution was added in a second row thereof, and 100 μl of each of solutions at pH 4, pH 7, pH 9, and pH 11 was added in third to sixth rows thereof using 10 mM of the sodium phosphate buffer solution prepared in step a) above. In columns of the plate, 100 μl of specimens prepared at a concentration of 240 μM were added to 6 rows, respectively, and a total of 36 specimens were screened. […]

[3] = Evaluation of magnesium ion sensitivity at concentration of less than 10 mM
Method: Magnesium chloride was dissolved in deionized water and diluted to 8, 10, 12, 14 and 16 mM, respectively, to prepare specimens. Next, as the dye compounds, the HNB and the compound of Chemical Formula 2 were prepared at a concentration of 240 μM, but the compounds of Chemical Formulas 3 and 4 were prepared to be diluted at a concentration of 120 μM by 50% because the molar absorption coefficient of the compounds was two times higher than that of the control (HNB).
In each row of a 96-well plate, […] of the dye compound was filled, and in each column, […] of a diluted magnesium chloride solution was filled, and then the color changes were observed and absorbance was measured. The final concentrations of magnesium chloride in the 96-well plate were 0, 4, 5, 6, 7, and 8 mM, and the final concentrations of HNB and Chemical Formula 2 were 120 μM, respectively, and the final concentrations of Chemical Formulas 3 and 4 were 60 μM, respectively.

Solubility test in water = conditions: 10 mg dissolved in 1 ml of deionized water
Method: The solubility in water was measured to confirm the solubility of the synthesized candidate compounds. Specifically, 10 mg of hydroxynaphthalene blue (HNB), which is a compound known to be developed by magnesium ions as a control, and 10 mg of each of the candidate compounds were dissolved in 1 ml of deionized water, and then the solubility was confirmed.
Various color developing dyes represented by Chemical Formula 1 above were dissolved in distilled water (D.W) and the solubility was tested to select a compound having high solubility. The selected compound was diluted at each concentration (100 uM, 50 uM, 25 uM, 12.5 uM, 6.25 uM, and 3.13 uM) and the reaction sensitivity with magnesium (magnesium concentration of 100 mM, 10 mM) by concentration was tested.

| Molecule | Molar absorption coefficient [1] | pH stability (color development with pH change in the absence of magnesium ions) [2] | other results |
| --- | --- | --- | --- |
| O=[N+]([O-])c1cc(N=Nc2c(S(=O)(=O)O)cc3cc(Nc4ccccc4)ccc3c2O)c(O)c(S(=O)(=O)O)c1 [Chemical Formula 7] | 25,000 | – | – |
| O=[N+]([O-])c1ccc(O)c(N=Nc2cc(S(=O)(=O)O)c3ccccc3c2O)c1 [Chemical Formula 2] | 12,000 | developed to a color clearly different from that in the presence of magnesium ions under neutral to basic conditions | – |
| O=[N+]([O-])c1cc(N=Nc2c(O)ccc3ccccc23)c(O)c([N+](=O)[O-])c1 [Chemical Formula 8] | 5,117 | – | – |
| Nc1ccc2c(O)c(N=Nc3ccc([N+](=O)[O-])cc3O)c(S(=O)(=O)O)cc2c1 [Chemical Formula 3] | 44,000 | excellent; also recorded: without being influenced by the pH change | absorption coefficient relative to HNB [1]: 3.38 times; absorption spectrum position after shift by magnesium ions ([3]; with magnesium ions): 640 nm; absorption spectrum position before shift by magnesium ions ([3]; without magnesium ions): 500 nm |
| O=[N+]([O-])c1cc(N=Nc2c(O)cccc2O)c(O)c(S(=O)(=O)O)c1 [Chemical Formula 6] | 18,000 | – | – |
| O=[N+]([O-])c1cc(N=Nc2c(S(=O)(=O)O)cc3cc(Nc4ccccc4)ccc3c2O)c(O)c([N+](=O)[O-])c1 [Chemical Formula 4] | 31,000 | excellent; also recorded: without being influenced by the pH change | absorption coefficient relative to HNB [1]: 2.38 times |
| CC1=NN(c2ccccc2)C(O)C1N=Nc1cc([N+](=O)[O-])cc(S(=O)(=O)O)c1O (centres unmarked) [Chemical Formula 5] | 33,579 | – | – |
| hydroxynaphthalene blue [HNB, reference compound] | 13,000 | – | solubility in water (Solubility test in water): dissolved in water |
| O=[N+]([O-])c1cc(S(=O)(=O)O)cc(N=Nc2cc(S(=O)(=O)[O-])c3ccccc3c2O)c1O.[Na+] [Chemical Formula 9] | 23,000 | – | – |
